Test results taken from patent US20210261621A1, “Preparation of Dilipid Polymixins and Use Thereof as Antimicrobial Adjuvants” (priority 2018, published 2021).
Like-named read-outs stand apart in the source and are kept apart here. Positions of bridges follow the written chain, without caps; N, C: chain ends. Non-standard residues stand in square brackets, D forms with d. Residues, ends and D or L forms follow the SMILES beside them. *: point of attachment. Lauroyl = CCCCCCCCCCCC(=O)*; Dab = NCC[C@H](N)C(=O)O; Butyryl = CCCC(=O)*

Experiments:
pig erythrocytes = experiment: Hemolytic assay
Procedure: The ability of the compounds to lyse eukaryotic red blood cells was measured by the amount of hemoglobin released upon incubation with pig erythrocytes, following a published protocol [30]. Briefly, fresh pig blood (generously provided by Dr. Richard Hodges, Director of Animal Care and Veterinary Services of the University of Manitoba) drawn from a pig's antecubital vein was centrifuged at 1000 g for 5 min at 4° C., washed with phosphate-buffered saline (PBS) three times, and re-suspended in the same buffer, consecutively. Compounds at study were 2-fold serially diluted in PBS on a 96-well plate and mixed with equal volumes of erythrocyte solution. Post 1 h incubation at 37° C., the intact cells were pelleted by centrifugation at 1000 g for 5 min at 4° C. Resulting supernatant was then transferred to a new 96-well plate. The hemoglobin released was then measured via an EMax Plus microplate reader (Molecular Devices, USA) at 570 nm wavelength. Erythrocytes in PBS with or without 0.1% Triton X-100 were used as positive or negative control, respectively.

P. aeruginosa PAO1 = tested on: P. aeruginosa PAO1; set-up: MICDrug / MICDrug in combo / MIC of adjuvant in combo: unit not given beside the values; conditions: for MIC of adjuvant alone (MIC1, MIC2, MIC3, MIC4, MIC5, MICPMBN): one value per checkerboard, in µg/mL
[1] = combination with Chloramphenicol
[2] = in combination with Ceftazidime
[3] = in combination with Chloramphenicol
[4] = in combination with Ciprofloxacin
[5] = in combination with Clindamycin
[6] = in combination with Doxycycline
[7] = in combination with Minocycline
[8] = in combination with Moxifloxacin
[9] = in combination with Piperacillin
[10] = in combination with Pleuromutilin
[11] = in combination with Streptomycin
[12] = in combination with Trimethoprim

colistin [reference compound]
% Hemolysis at 512 μg/mL of polymyxin (pig erythrocytes; 512 μg/mL, pig erythrocytes, 1 h at 37° C.): 1.6 ± 0.5%
MHC5, minimum concentration that resulted in 5% red blood cell hemolysis (pig erythrocytes; pig erythrocytes, 1 h at 37° C.): >512 µg/mL
hemolytic activity (pig erythrocytes; up to the highest concentration tested of 512 μg/mL): no hemolytic activity

CCCCCCCCCCCC(=O)NCC[C@H](NC(=O)CCCCCCCCCCC)C(=O)N[C@H](C(=O)N[C@@H](CCN)C(=O)N[C@H]1CCNC(=O)[C@H]([C@@H](C)O)NC(=O)[C@H](CCN)NC(=O)[C@H](CCN)NC(=O)[C@H](CC(C)C)NC(=O)[C@@H](Cc2ccccc2)NC(=O)[C@H](CCN)NC1=O)[C@@H](C)O [Compound 3, Didodecanoic Acid (Di-C12) Polymyxin] (Lauroyl-[Dab](Lauroyl)T[Dab][Dab][Dab][dF]L[Dab][Dab]T; lactam 4-C)
MIC of adjuvant alone (MIC1, MIC2, MIC3, MIC4, MIC5, MICPMBN) (P. aeruginosa PAO1): 32
Interpretation (P. aeruginosa PAO1; combination with Aztreonam): Additive (An FIC index of ≤0.5, 0.5<x≤4, or >4 denotes for synergistic, additive or antagonistic interaction, respectively)
Interpretation (P. aeruginosa PAO1; combination with Ceftazidime): Additive (An FIC index of ≤0.5, 0.5<x≤4, or >4 denotes for synergistic, additive or antagonistic interaction, respectively)
Interpretation (P. aeruginosa PAO1; [1]): Additive (An FIC index of ≤0.5, 0.5<x≤4, or >4 denotes for synergistic, additive or antagonistic interaction, respectively)
Interpretation (P. aeruginosa PAO1; combination with Ciprofloxacin): Additive (An FIC index of ≤0.5, 0.5<x≤4, or >4 denotes for synergistic, additive or antagonistic interaction, respectively)
Interpretation (P. aeruginosa PAO1; combination with Clindamycin): Additive (An FIC index of ≤0.5, 0.5<x≤4, or >4 denotes for synergistic, additive or antagonistic interaction, respectively)
Interpretation (P. aeruginosa PAO1; combination with Doripenem): Additive (An FIC index of ≤0.5, 0.5<x≤4, or >4 denotes for synergistic, additive or antagonistic interaction, respectively)
Interpretation (P. aeruginosa PAO1; combination with Doxycycline): Additive (An FIC index of ≤0.5, 0.5<x≤4, or >4 denotes for synergistic, additive or antagonistic interaction, respectively)
Interpretation (P. aeruginosa PAO1; combination with Fosfomycin): Additive (An FIC index of ≤0.5, 0.5<x≤4, or >4 denotes for synergistic, additive or antagonistic interaction, respectively)
Interpretation (P. aeruginosa PAO1; combination with Gentamicin): Additive (An FIC index of ≤0.5, 0.5<x≤4, or >4 denotes for synergistic, additive or antagonistic interaction, respectively)
Interpretation (P. aeruginosa PAO1; combination with Linezolid): Additive (An FIC index of ≤0.5, 0.5<x≤4, or >4 denotes for synergistic, additive or antagonistic interaction, respectively)
Interpretation (P. aeruginosa PAO1; combination with Meropenem): Additive (An FIC index of ≤0.5, 0.5<x≤4, or >4 denotes for synergistic, additive or antagonistic interaction, respectively)
Interpretation (P. aeruginosa PAO1; combination with Minocycline): Additive (An FIC index of ≤0.5, 0.5<x≤4, or >4 denotes for synergistic, additive or antagonistic interaction, respectively)
Interpretation (P. aeruginosa PAO1; combination with Moxifloxacin): Additive (An FIC index of ≤0.5, 0.5<x≤4, or >4 denotes for synergistic, additive or antagonistic interaction, respectively)
Interpretation (P. aeruginosa PAO1; combination with Novobiocin): Additive (An FIC index of ≤0.5, 0.5<x≤4, or >4 denotes for synergistic, additive or antagonistic interaction, respectively)
Interpretation (P. aeruginosa PAO1; combination with Piperacillin): Additive (An FIC index of ≤0.5, 0.5<x≤4, or >4 denotes for synergistic, additive or antagonistic interaction, respectively)
Interpretation (P. aeruginosa PAO1; combination with Pleuromutilin): Additive (An FIC index of ≤0.5, 0.5<x≤4, or >4 denotes for synergistic, additive or antagonistic interaction, respectively)
Interpretation (P. aeruginosa PAO1; combination with Rifampicin): Additive (An FIC index of ≤0.5, 0.5<x≤4, or >4 denotes for synergistic, additive or antagonistic interaction, respectively)
Interpretation (P. aeruginosa PAO1; combination with Streptomycin): Additive (An FIC index of ≤0.5, 0.5<x≤4, or >4 denotes for synergistic, additive or antagonistic interaction, respectively)
Interpretation (P. aeruginosa PAO1; combination with Tobramycin): Additive (An FIC index of ≤0.5, 0.5<x≤4, or >4 denotes for synergistic, additive or antagonistic interaction, respectively)
Interpretation (P. aeruginosa PAO1; combination with Trimethoprim): Additive (An FIC index of ≤0.5, 0.5<x≤4, or >4 denotes for synergistic, additive or antagonistic interaction, respectively)
Interpretation (P. aeruginosa PAO1; combination with Vancomycin): Additive (An FIC index of ≤0.5, 0.5<x≤4, or >4 denotes for synergistic, additive or antagonistic interaction, respectively)
MIC of adjuvant in combo (P. aeruginosa PAO1; in combination with Aztreonam): (16)
MIC of adjuvant in combo (P. aeruginosa PAO1; [2]): (16)
MIC of adjuvant in combo (P. aeruginosa PAO1; [3]): (16)
MIC of adjuvant in combo (P. aeruginosa PAO1; [4]): (0.25)
MIC of adjuvant in combo (P. aeruginosa PAO1; [5]): (16)
MIC of adjuvant in combo (P. aeruginosa PAO1; in combination with Doripenem): (16)
MIC of adjuvant in combo (P. aeruginosa PAO1; [6]): (16)
MIC of adjuvant in combo (P. aeruginosa PAO1; in combination with Fosfomycin): (8)
MIC of adjuvant in combo (P. aeruginosa PAO1; in combination with Gentamicin): (0.25)
MIC of adjuvant in combo (P. aeruginosa PAO1; in combination with Linezolid): (32)
MIC of adjuvant in combo (P. aeruginosa PAO1; in combination with Meropenem): (16)
MIC of adjuvant in combo (P. aeruginosa PAO1; [7]): (16)
MIC of adjuvant in combo (P. aeruginosa PAO1; [8]): (16)
MIC of adjuvant in combo (P. aeruginosa PAO1; in combination with Novobiocin): (16)
MIC of adjuvant in combo (P. aeruginosa PAO1; [9]): (16)
MIC of adjuvant in combo (P. aeruginosa PAO1; [10]): (16)
MIC of adjuvant in combo (P. aeruginosa PAO1; in combination with Rifampicin): (8)
MIC of adjuvant in combo (P. aeruginosa PAO1; [11]): (0.25)
MIC of adjuvant in combo (P. aeruginosa PAO1; in combination with Tobramycin): (0.25)
MIC of adjuvant in combo (P. aeruginosa PAO1; [12]): (16)
MIC of adjuvant in combo (P. aeruginosa PAO1; in combination with Vancomycin): (16)
adjuvant activity (potentiation of the panel of 21 antibiotics) (P. aeruginosa PAO1; result in words): did not enhance the activity of any antibiotics

CCCC(=O)NCC[C@H](NC(=O)CCC)C(=O)N[C@H](C(=O)N[C@@H](CCN)C(=O)N[C@H]1CCNC(=O)[C@H]([C@@H](C)O)NC(=O)[C@H](CCN)NC(=O)[C@H](CCN)NC(=O)[C@H](CC(C)C)NC(=O)[C@@H](Cc2ccccc2)NC(=O)[C@H](CCN)NC1=O)[C@@H](C)O [Compound 1, Dibutyric Acid (Di-C4) Polymyxin] (Butyryl-[Dab](Butyryl)T[Dab][Dab][Dab][dF]L[Dab][Dab]T; lactam 4-C)
MIC of adjuvant alone (MIC1, MIC2, MIC3, MIC4, MIC5, MICPMBN) (P. aeruginosa PAO1): 128
Interpretation (P. aeruginosa PAO1; combination with Aztreonam): Synergy (An FIC index of ≤0.5, 0.5<x≤4, or >4 denotes for synergistic, additive or antagonistic interaction, respectively)
Interpretation (P. aeruginosa PAO1; combination with Ceftazidime): Synergy (An FIC index of ≤0.5, 0.5<x≤4, or >4 denotes for synergistic, additive or antagonistic interaction, respectively)
Interpretation (P. aeruginosa PAO1; [1]): Synergy (An FIC index of ≤0.5, 0.5<x≤4, or >4 denotes for synergistic, additive or antagonistic interaction, respectively)
Interpretation (P. aeruginosa PAO1; combination with Ciprofloxacin): Synergy (An FIC index of ≤0.5, 0.5<x≤4, or >4 denotes for synergistic, additive or antagonistic interaction, respectively)
Interpretation (P. aeruginosa PAO1; combination with Clindamycin): Synergy (An FIC index of ≤0.5, 0.5<x≤4, or >4 denotes for synergistic, additive or antagonistic interaction, respectively)
Interpretation (P. aeruginosa PAO1; combination with Doripenem): Additive (An FIC index of ≤0.5, 0.5<x≤4, or >4 denotes for synergistic, additive or antagonistic interaction, respectively)
Interpretation (P. aeruginosa PAO1; combination with Doxycycline): Synergy (An FIC index of ≤0.5, 0.5<x≤4, or >4 denotes for synergistic, additive or antagonistic interaction, respectively)
Interpretation (P. aeruginosa PAO1; combination with Fosfomycin): Synergy (An FIC index of ≤0.5, 0.5<x≤4, or >4 denotes for synergistic, additive or antagonistic interaction, respectively)
Interpretation (P. aeruginosa PAO1; combination with Gentamicin): Additive (An FIC index of ≤0.5, 0.5<x≤4, or >4 denotes for synergistic, additive or antagonistic interaction, respectively)
Interpretation (P. aeruginosa PAO1; combination with Linezolid): Synergy (An FIC index of ≤0.5, 0.5<x≤4, or >4 denotes for synergistic, additive or antagonistic interaction, respectively)
Interpretation (P. aeruginosa PAO1; combination with Meropenem): Synergy (An FIC index of ≤0.5, 0.5<x≤4, or >4 denotes for synergistic, additive or antagonistic interaction, respectively)
Interpretation (P. aeruginosa PAO1; combination with Minocycline): Synergy (An FIC index of ≤0.5, 0.5<x≤4, or >4 denotes for synergistic, additive or antagonistic interaction, respectively)
Interpretation (P. aeruginosa PAO1; combination with Moxifloxacin): Synergy (An FIC index of ≤0.5, 0.5<x≤4, or >4 denotes for synergistic, additive or antagonistic interaction, respectively)
Interpretation (P. aeruginosa PAO1; combination with Novobiocin): Synergy (An FIC index of ≤0.5, 0.5<x≤4, or >4 denotes for synergistic, additive or antagonistic interaction, respectively)
Interpretation (P. aeruginosa PAO1; combination with Piperacillin): Additive (An FIC index of ≤0.5, 0.5<x≤4, or >4 denotes for synergistic, additive or antagonistic interaction, respectively)
Interpretation (P. aeruginosa PAO1; combination with Pleuromutilin): Synergy (An FIC index of ≤0.5, 0.5<x≤4, or >4 denotes for synergistic, additive or antagonistic interaction, respectively)
Interpretation (P. aeruginosa PAO1; combination with Rifampicin): Synergy (An FIC index of ≤0.5, 0.5<x≤4, or >4 denotes for synergistic, additive or antagonistic interaction, respectively)
Interpretation (P. aeruginosa PAO1; combination with Streptomycin): Additive (An FIC index of ≤0.5, 0.5<x≤4, or >4 denotes for synergistic, additive or antagonistic interaction, respectively)
Interpretation (P. aeruginosa PAO1; combination with Tobramycin): Additive (An FIC index of ≤0.5, 0.5<x≤4, or >4 denotes for synergistic, additive or antagonistic interaction, respectively)
Interpretation (P. aeruginosa PAO1; combination with Trimethoprim): Synergy (An FIC index of ≤0.5, 0.5<x≤4, or >4 denotes for synergistic, additive or antagonistic interaction, respectively)
Interpretation (P. aeruginosa PAO1; combination with Vancomycin): Synergy (An FIC index of ≤0.5, 0.5<x≤4, or >4 denotes for synergistic, additive or antagonistic interaction, respectively)
MIC of adjuvant in combo (P. aeruginosa PAO1; in combination with Aztreonam): (32)
MIC of adjuvant in combo (P. aeruginosa PAO1; [2]): (32)
MIC of adjuvant in combo (P. aeruginosa PAO1; [3]): (4)
MIC of adjuvant in combo (P. aeruginosa PAO1; [4]): (32)
MIC of adjuvant in combo (P. aeruginosa PAO1; [5]): (8)
MIC of adjuvant in combo (P. aeruginosa PAO1; in combination with Doripenem): (32)
MIC of adjuvant in combo (P. aeruginosa PAO1; [6]): (2)
MIC of adjuvant in combo (P. aeruginosa PAO1; in combination with Fosfomycin): (16)
MIC of adjuvant in combo (P. aeruginosa PAO1; in combination with Gentamicin): (0.0625)
MIC of adjuvant in combo (P. aeruginosa PAO1; in combination with Linezolid): (4)
MIC of adjuvant in combo (P. aeruginosa PAO1; in combination with Meropenem): (32)
MIC of adjuvant in combo (P. aeruginosa PAO1; [7]): (2)
MIC of adjuvant in combo (P. aeruginosa PAO1; [8]): (16)
MIC of adjuvant in combo (P. aeruginosa PAO1; in combination with Novobiocin): (8)
MIC of adjuvant in combo (P. aeruginosa PAO1; [9]): (32)
MIC of adjuvant in combo (P. aeruginosa PAO1; [10]): (8)
MIC of adjuvant in combo (P. aeruginosa PAO1; in combination with Rifampicin): (2)
MIC of adjuvant in combo (P. aeruginosa PAO1; [11]): (32)
MIC of adjuvant in combo (P. aeruginosa PAO1; in combination with Tobramycin): (0.5)
MIC of adjuvant in combo (P. aeruginosa PAO1; [12]): (16)
MIC of adjuvant in combo (P. aeruginosa PAO1; in combination with Vancomycin): (32)
